Common to all, as to type: cell-based
Test [1] deals with Pasteurella multocida PM 6391 (ATCC 43137, reference strain). The experiment in a line: MIC, broth-microdilution (CLSI VET01-A4), strain PM 6391. The note with it: Pasteurella multocida strain PM 6391, broth-microdilution; unit assumed. Summed up: (§1)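 Broth microdilution per CLSI VET01-A4, using trays with a doubling dilution series of compound; results interpreted per CLSI VET01-S3. MIC taken as lowest concentration with no turbidity visible to the unaided eye.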

In test [2] the test system is Pasteurella multocida PM 12080 (IV102277-0093, BRD field isolate). Nature of the test: MIC, broth-microdilution (CLSI VET01-A4), strain PM 12080. Conditions: Pasteurella multocida strain PM 12080, broth-microdilution; unit assumed. Summed up:
as §1
(Dilution methods test growth across graded concentrations, often in twofold steps.)

In test [3] the test system is Pasteurella multocida PM 6267 (P 2225 (L386), reference strain, mouse infection strain). The experiment in a line: MIC, broth-microdilution (CLSI VET01-A4), strain PM 6267. Conditions: Pasteurella multocida strain PM 6267, broth-microdilution; unit assumed. Summed up: as §1
The test system of test [4] is Mannheimia haemolytica MH 12587 (1071, BRD field isolate, macrolide-resistance: erm+, E+). Nature of the test: MIC, broth-microdilution (CLSI VET01-A4), strain MH 12587. Conditions: Mannheimia haemolytica strain MH 12587, broth-microdilution; unit assumed. In short, it runs like this: as §1
Test [5] deals with Mannheimia haemolytica MH 10720 (154, BRD field isolate). Nature of the test: MIC, broth-microdilution (CLSI VET01-A4), strain MH 10720. The note with it: Mannheimia haemolytica strain MH 10720, broth-microdilution; unit assumed. In short, it runs like this: as §1
Test [6] has as its system Mannheimia haemolytica MH 13065 (XB0446-6003.9, BRD field isolate). The experiment in a line: MIC, broth-microdilution (CLSI VET01-A4), strain MH 13065. The note with it: Mannheimia haemolytica strain MH 13065, broth-microdilution; unit assumed. In short, it runs like this: as §1
In test [7] the test system is Pasteurella multocida PM 10775 (080130003051, BRD field isolate). The experiment in a line: MIC, broth-microdilution (CLSI VET01-A4), strain PM 10775. The note with it: Pasteurella multocida strain PM 10775, broth-microdilution; unit assumed. In short, it runs like this: as §1
Test [8] deals with Mannheimia haemolytica MH 13093 (XB0472-6014.1, BRD field isolate). The experiment in a line: MIC, broth-microdilution (CLSI VET01-A4), strain MH 13093. The note with it: Mannheimia haemolytica strain MH 13093, broth-microdilution; unit assumed. Summed up:
as §1

The subject of test [9] is Mannheimia haemolytica MH 6374 (ATCC 33396, reference strain). Nature of the test: MIC, broth-microdilution (CLSI VET01-A4), strain MH 6374. The note with it: Mannheimia haemolytica strain MH 6374, broth-microdilution; unit assumed. In short, it runs like this:
as §1

The test system of test [10] is Mannheimia haemolytica MH 6357 (M7/2, reference strain, cattle infection strain). The experiment in a line: MIC, broth-microdilution (CLSI VET01-A4), strain MH 6357. The note with it: Mannheimia haemolytica strain MH 6357, broth-microdilution; unit assumed. Summed up: as §1

Structures are written as SMILES. ≈ marks a conversion by molar mass, not a printed value.

On to `CC[C@H](C)[C@H](NC(=O)c1ccc(C#Cc2ccc(CNCc3cccs3)cc2)cc1)C(=O)NO` [Compound 182], for which, in [1], the MIC PM 6391 came to 0.8 mg/L (≈ 1.68 µM). This molecule showed an MIC PM 12080 in [2] of 0.2 mg/L (≈ 0.421 µM). In [3], this molecule had an MIC PM 6267 of 0.2 mg/L (≈ 0.421 µM). Also, the MIC MH 12587 in [4] was determined as 1.6 mg/L (≈ 3.36 µM). The same molecule yielded an MIC MH 10720 in test [5] of 0.2 mg/L (≈ 0.421 µM). Moreover, the MIC MH 13065 in test [6] is 0.8 mg/L (≈ 1.68 µM). For the same molecule, the MIC PM 10775 in test [7] is at most 0.1 mg/L. In [8], this molecule yielded an MIC MH 13093 of 0.8 mg/L (≈ 1.68 µM). The molecule further returned an MIC MH 6374 in test [9] of 1.6 mg/L (≈ 3.36 µM). This molecule registered an MIC MH 6357 in test [10] of 0.4 mg/L (≈ 0.841 µM).
In test [1], `CC[C@H](C)[C@H](NC(=O)c1ccc(C#Cc2ccc(CNCC3CCCO3)cc2)cc1)C(=O)NO` (stereo partly shown) [Compound 183] yielded an MIC PM 6391 of 1.6 mg/L (≈ 3.45 µM). In [2], this molecule displayed an MIC PM 12080 of 0.8 mg/L (≈ 1.73 µM). In [3], the MIC PM 6267 was found to be 0.4 mg/L (≈ 0.863 µM). This molecule also gave an MIC MH 12587 in test [4] of 1.6 mg/L (≈ 3.45 µM). The molecule further displayed an MIC MH 10720 in [5] of 0.8 mg/L (≈ 1.73 µM). In test [6], this molecule displayed an MIC MH 13065 of 3.1 mg/L (≈ 6.69 µM). In test [7], this molecule gave an MIC PM 10775 of at most 0.1 mg/L. For the same molecule, in [8], the MIC MH 13093 was 3.1 mg/L (≈ 6.69 µM). The MIC MH 6374 in test [9] was 3.1 mg/L (≈ 6.69 µM). The molecule also showed an MIC MH 6357 in test [10] of 1.6 mg/L (≈ 3.45 µM).
In the case of `CC[C@H](C)[C@H](NC(=O)c1ccc(C#Cc2ccc(CNCc3ncc[nH]3)cc2)cc1)C(=O)NO` [Compound 184], the MIC PM 6391 in test [1] is 3.1 mg/L (≈ 6.75 µM). Also, the MIC PM 12080 in [2] is 1.6 mg/L (≈ 3.48 µM). For the same molecule, the MIC PM 6267 in test [3] is 0.4 mg/L (≈ 0.87 µM). Further, the MIC MH 12587 in test [4] was 12.5 mg/L (≈ 27.2 µM). This molecule also yielded an MIC MH 10720 in test [5] of 0.8 mg/L (≈ 1.74 µM). In [6], this molecule came in with an MIC MH 13065 of 6.3 mg/L (≈ 13.7 µM). This molecule registered an MIC PM 10775 in test [7] of at most 0.1 mg/L. The molecule further returned an MIC MH 13093 in test [8] of 6.3 mg/L (≈ 13.7 µM). Also, the MIC MH 6374 in test [9] turned out to be 6.3 mg/L (≈ 13.7 µM). Moreover, the MIC MH 6357 in test [10] was determined as 12.5 mg/L (≈ 27.2 µM).
Regarding `CC[C@H](C)[C@H](NC(=O)c1ccc(C#Cc2ccc(CNC(C)COC)cc2)cc1)C(=O)NO` (stereo partly shown) [Compound 185], the MIC PM 6391 in [1] amounted to 0.8 mg/L (≈ 1.77 µM). In test [2], the MIC PM 12080 worked out at 0.4 mg/L (≈ 0.886 µM). In test [3], this molecule returned an MIC PM 6267 of at most 0.1 mg/L. The molecule also came in with an MIC MH 12587 in test [4] of 6.3 mg/L (≈ 14 µM). The MIC MH 10720 in test [5] came out at 0.8 mg/L (≈ 1.77 µM). Further, the MIC MH 13065 in [6] is 3.1 mg/L (≈ 6.86 µM). For the same molecule, the MIC PM 10775 in [7] is at most 0.1 mg/L. The MIC MH 13093 in test [8] came out at 6.3 mg/L (≈ 14 µM). In addition, the MIC MH 6374 in test [9] came to 6.3 mg/L (≈ 14 µM). The MIC MH 6357 in [10] worked out at 3.1 mg/L (≈ 6.86 µM).
As for `CC[C@H](C)[C@H](NC(=O)c1ccc(C#Cc2ccc(CN3CCCOCC3)cc2)cc1)C(=O)NO` [Compound 186], in test [1], the MIC PM 6391 was determined as 0.4 mg/L (≈ 0.863 µM). The molecule further returned an MIC PM 12080 in test [2] of 0.2 mg/L (≈ 0.431 µM). This molecule showed an MIC PM 6267 in [3] of at most 0.1 mg/L. The molecule also yielded an MIC MH 12587 in test [4] of 6.3 mg/L (≈ 13.6 µM). Besides, in test [5], the MIC MH 10720 was found to be 1.6 mg/L (≈ 3.45 µM). In test [6], this molecule yielded an MIC MH 13065 of 3.1 mg/L (≈ 6.69 µM). This molecule returned an MIC PM 10775 in test [7] of at most 0.1 mg/L. In addition, the MIC MH 13093 in [8] is 3.1 mg/L (≈ 6.69 µM). This molecule also registered an MIC MH 6374 in [9] of 6.3 mg/L (≈ 13.6 µM). For the same molecule, the MIC MH 6357 in test [10] was found to be 1.6 mg/L (≈ 3.45 µM).
In test [1], `CC[C@H](C)[C@H](NC(=O)c1ccc(C#Cc2ccc(CN3CCCCC3)cc2)cc1)C(=O)NO` [Compound 187] gave an MIC PM 6391 of 1.6 mg/L (≈ 3.57 µM). The same molecule yielded an MIC PM 12080 in test [2] of 0.8 mg/L (≈ 1.79 µM). Further, the MIC PM 6267 in test [3] was 0.4 mg/L (≈ 0.894 µM). For the same molecule, the MIC MH 12587 in test [4] was 12.5 mg/L (≈ 27.9 µM). The MIC MH 10720 in test [5] turned out to be 1.6 mg/L (≈ 3.57 µM). Moreover, the MIC MH 13065 in [6] was 6.3 mg/L (≈ 14.1 µM). The molecule further displayed an MIC PM 10775 in test [7] of at most 0.1 mg/L. In [8], this molecule had an MIC MH 13093 of 6.3 mg/L (≈ 14.1 µM). Further, in test [9], the MIC MH 6374 is 12.5 mg/L (≈ 27.9 µM). In addition, the MIC MH 6357 in test [10] came out at 3.1 mg/L (≈ 6.93 µM).
Molecule `CC[C@H](C)[C@H](NC(=O)c1ccc(C#Cc2ccc(CNCc3ccnc(Cl)c3)cc2)cc1)C(=O)NO` [Compound 190] registered an MIC PM 6391 in test [1] of 0.4 mg/L (≈ 0.792 µM). In addition, in test [2], the MIC PM 12080 was 0.2 mg/L (≈ 0.396 µM). The molecule further gave an MIC PM 6267 in test [3] of at most 0.1 mg/L. The molecule also returned an MIC MH 12587 in test [4] of 3.1 mg/L (≈ 6.14 µM). The MIC MH 10720 in [5] was 0.4 mg/L (≈ 0.792 µM). Besides, the MIC MH 13065 in test [6] was 1.6 mg/L (≈ 3.17 µM). The MIC PM 10775 in [7] is at most 0.1 mg/L. Also, the MIC MH 13093 in [8] is 1.6 mg/L (≈ 3.17 µM). This molecule came in with an MIC MH 6374 in [9] of 3.1 mg/L (≈ 6.14 µM). In test [10], this molecule displayed an MIC MH 6357 of 1.6 mg/L (≈ 3.17 µM).

These data come from US11034650B2, “Compounds useful for treating a Mannheimia haemolytica or Histophilus somni infection” (Intervet Inc., priority 2016, dated 2021).
